How the values were obtained:
[1] = target: A-Raf kinase (SEQ. ID No: 1) (Homo sapiens (Human), UniProt P10398, Y301D/Y302D); assay: Biochemical Assay for A-Raf (1); conditions: Table J, assay version (1); read-out: ARAF (1) IC50
In short: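 IC50 values were derived by four-parameter sigmoidal fitting of percent inhibition, calculated from reaction rates over the 4–5 h window. Absorbance at 340 nm was tracked for 6 h at 30 °C via coupled PK/LDH NADH depletion. Conditions: 1 mM ATP, 30.1 nM MEK substrate, 5.55 nM A-Raf (Y301D/Y302D), Tris pH 7.5, 1% DMSO.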

A375 cells = assay: A375 Cell Proliferation Assay (1); type: cell-based; conditions: Homo sapiens, A-375
In short: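 Resazurin fluorescence (excitation 540 nm, emission 600 nm, after a further 5-6 h) gave IC50s from triplicate compound dilution series.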

WM3928 cells = assay: WM3928 Cell Proliferation Assay (1); type: cell-based
In short: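 IC50 was derived from resazurin fluorescence (ex 540, em 600 nm) after a 6–7 h dye incubation. Before that, cells had 67–72 h of compound exposure at 37 °C, 5% CO2.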

Miapaca-2 cells = assay: MiaPaca-2 Cell Proliferation Assay (1); type: cell-based; conditions: Homo sapiens, MIA PaCa-2, single agent, read-out: MiaPaca2 (1) IC50
In short: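 Resazurin was added after compound exposure and incubated 5-6 h, then fluorescence read at 540 nm excitation and 600 nm emission to give IC50.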

Chain of A-Raf kinase (SEQ. ID No: 1) (P10398 other isoform, or with tags, fused parts or gaps Y301D (already in the parent)/Y302D (already in the parent)): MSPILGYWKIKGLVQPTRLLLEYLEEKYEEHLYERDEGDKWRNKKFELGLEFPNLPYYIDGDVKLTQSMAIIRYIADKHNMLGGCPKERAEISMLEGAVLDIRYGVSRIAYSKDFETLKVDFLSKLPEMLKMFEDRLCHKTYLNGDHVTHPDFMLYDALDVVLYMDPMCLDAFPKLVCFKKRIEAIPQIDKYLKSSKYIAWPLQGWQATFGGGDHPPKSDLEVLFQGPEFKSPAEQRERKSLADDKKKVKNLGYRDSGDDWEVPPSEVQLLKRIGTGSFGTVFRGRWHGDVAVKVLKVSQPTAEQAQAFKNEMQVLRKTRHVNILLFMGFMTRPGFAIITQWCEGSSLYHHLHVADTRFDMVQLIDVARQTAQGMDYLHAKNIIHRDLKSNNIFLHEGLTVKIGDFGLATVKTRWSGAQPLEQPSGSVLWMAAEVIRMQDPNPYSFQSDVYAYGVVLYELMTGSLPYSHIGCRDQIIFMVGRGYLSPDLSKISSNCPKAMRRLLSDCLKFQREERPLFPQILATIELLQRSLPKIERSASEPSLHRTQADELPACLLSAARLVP

IC50 [1] [nM]	IC50 (A375 cells) [nM]	IC50 (Miapaca-2 cells) [nM]	Compound	IC50 (WM3928 cells) [nM]
1000 to 10000	1000 to 10000		CNC(=O)c1cc(-c2cnnc(-c3cc(NC(=O)c4ccnc(C5CC5)c4)cnc3C)c2)ccn1 [Example 317]	
1000 to 10000	≤ 100		COC(=O)Nc1cc(-c2cc(-c3cc(NC(=O)c4ccnc(C(C)(C)F)c4)c(F)cc3C)ccn2)ccn1 [Example 302]	≤ 100
1000 to 10000	1000 to 10000		COC(=O)Nc1cc(-c2cc(-c3cc(NC(=O)c4ccnc(C(F)F)c4)cnc3C)ccn2)ccn1 [Example 313]	1000 to 10000
1000 to 10000	1000 to 10000		CNC(=O)c1cc(-c2cnnc(-c3cc(NC(=O)c4cn(C(C)(C)C)nn4)ccc3C)c2)ccn1 [Example 366]	
1000 to 10000	1000 to 10000		COC(=O)Nc1cc(-c2cnnc(-c3cc(NC(=O)c4ccnc(C5CC5)c4)cnc3C)c2)ccn1 [Example 362]	
1000 to 10000	1000 to 10000		Cc1ccc(NC(=O)c2ccnc(C(C)(C)C#N)c2)cc1-c1cc(-c2ccnc3[nH]ccc23)cnn1 [Example 369]	
1000 to 10000	1000 to 10000		COCCNC(=O)c1cc(-c2cnnc(-c3cc(NC(=O)c4cccc(C5CC5)c4)ccc3C)c2)ccn1 [Example 365]	
1000 to 10000	100 to 500	1000 to 10000	CC(=O)Nc1cc(-c2cc(-c3cc(C(=O)Nc4ccnc(C(F)(F)F)c4)ccc3C)ccn2)ccn1 [Example 26]	
1000 to 10000	100 to 500		Cc1ccc(NC(=O)c2cc(C(C)(C)C)no2)cc1-c1cc(-c2ccnc(NC(=O)C3CC3)c2)cnn1 [Example 367]	
1000 to 10000	1000 to 10000	1000 to 10000	CNC(=O)c1cc(-c2cnnc(-c3cc(NC(=O)c4ccnc(C(C)(C)F)c4)cnc3C)c2)ccn1 [Example 309]	
1000 to 10000	1000 to 10000		CNC(=O)c1cc(-c2cnnc(-c3cc(NC(=O)c4ccnc(C5CC5)c4)ccc3C)c2)ccn1 [Example 326]	1000 to 10000
1000 to 10000	100 to 500		Cc1ccc(NC(=O)c2ccnc(C3CC3)c2)cc1-c1cc(-c2ccnc(NC(=O)C3CC3)c2)cnn1 [Example 331]	500 to 1000
1000 to 10000	1000 to 10000		CO[C@H]1CC[C@H](C(=O)Nc2cnc(C)c(-c3cccc(-c4cc(NC(=O)C5CC5)ncn4)c3)c2)CC1 [Example 347]	
1000 to 10000	1000 to 10000		CNC(=O)c1cc(-c2cc(-c3cc(NC(=O)CCC(C)(C)C#N)ccc3C)ccn2)ccn1 [Example 357]	
1000 to 10000	100 to 500		CNC(=O)c1cc(-c2cnnc(-c3cc(NC(=O)c4ccnc(C(C)(C)F)c4)ccc3C)c2)ccn1 [Example 325]	500 to 1000
1000 to 10000	100 to 500		CNC(=O)c1cc(-c2cnnc(-c3cc(NC(=O)c4ccnc(C(C)(C)OC)c4)ccc3C)c2)ccn1 [Example 328]	1000 to 10000
1000 to 10000	100 to 500		CNC(=O)c1cc(-c2cnnc(-c3cc(NC(=O)c4ccnc(C(C)(C)C#N)c4)ccc3C)c2)ccn1 [Example 314]	500 to 1000
1000 to 10000	1000 to 10000		CNC(=O)c1cc(-c2cnnc(-c3cc(NC(=O)c4ccnc(C(F)F)c4)cnc3C)c2)ccn1 [Example 330]	
1000 to 10000	1000 to 10000		COC(=O)Nc1cc(-c2cnnc(-c3cc(NC(=O)c4ccnc(C(F)F)c4)cnc3C)c2)ccn1 [Example 363]	
1000 to 10000	1000 to 10000	1000 to 10000	CNC(=O)c1cc(-c2cc(-c3cc(C(=O)Nc4ccnc(C(F)(F)F)c4)ccc3C)ccn2)ccn1 [Example 31]	
1000 to 10000	100 to 500		COC(=O)Nc1cc(-c2cc(-c3cc(NC(=O)c4ccnc(C(C)(C)F)c4)cnc3C)ccn2)ccn1 [Example 323]	100 to 500
1000 to 10000	100 to 500		Cc1ccc(NC(=O)c2cnn(C(C)(C)C)c2)cc1-c1cc(-c2ccnc(NC(=O)C3CC3)c2)cnn1 [Example 321]	100 to 500
1000 to 10000	1000 to 10000		CNC(=O)c1cc(-c2cnnc(-c3cc(NC(=O)c4ccnc(C(F)(F)F)c4)ccc3C)c2)ccn1 [Example 364]	1000 to 10000
1000 to 10000	1000 to 10000		Cc1ccc(NC(=O)c2ccnc(C(C)(C)C#N)c2)cc1-c1cc(-c2ccnc(C(=O)NC3CC3)c2)cnn1 [Example 372]	
1000 to 10000	≤ 100		COC(C)(C)c1cc(C(=O)Nc2ccc(C)c(-c3cc(-c4ccnc(NC(=O)C5CC5)c4)cnn3)c2)ccn1 [Example 319]	

IC50 [1] [nM]	IC50 (A375 cells) [nM]	IC50 (Miapaca-2 cells) [nM]	Compound	IC50 (WM3928 cells) [nM]
1000 to 10000	1000 to 10000		CNC(=O)c1cc(-c2cnnc(-c3cc(NC(=O)c4ccnc(C(F)(F)F)c4)cnc3C)c2)ccn1 [Example 318]	
1000 to 10000	≤ 100		COC(=O)Nc1cc(-c2nccc(-c3cc(NC(=O)c4ccnc(C(C)(C)C#N)c4)c(F)cc3C)n2)ccn1 [Example 303]	≤ 100
1000 to 10000	1000 to 10000		Cc1ccc(NC(=O)C2CN(C)CCO2)cc1-c1cccc(-c2cc(NC(=O)C3CC3)ncn2)c1 (centres unmarked) [Example 346]	
1000 to 10000	1000 to 10000		CO[C@H]1CC[C@H](C(=O)Nc2ccc(C)c(-c3ccnc(-c4ccnc(NC(=O)C5CC5)c4)n3)c2)CC1 [Example 341]	1000 to 10000
1000 to 10000	1000 to 10000		COC(=O)Nc1cc(-c2cnnc(-c3cc(NC(=O)c4ccnc(C(C)(C)F)c4)cnc3C)c2)ccn1 [Example 361]	
1000 to 10000	1000 to 10000		Cc1ncc(NC(=O)c2cnnc(C3CC3)c2)cc1-c1nccc(-c2ccnc(NC(=O)C3CC3)c2)n1 [Example 294]	
1000 to 10000	1000 to 10000	1000 to 10000	COC(=O)Nc1cc(-c2cnnc(-c3cc(NC(=O)c4ccnc(C(C)(C)C#N)c4)cnc3C)c2)ccn1 [Example 306]	
1000 to 10000	100 to 500	1000 to 10000	Cc1ncc(NC(=O)c2ccnc(C(C)(C)F)c2)cc1-c1cc(-c2ccnc(NC(=O)C3CC3)c2)cnn1 [Example 310]	
1000 to 10000	1000 to 10000		Cc1ccc(NC(=O)C2CCOC(C(C)C)C2)cc1-c1cc(-c2ccnc(NC(=O)C3CC3)c2)cnn1 (centres unmarked) [Example 370]	1000 to 10000
1000 to 10000	1000 to 10000		COC(=O)Nc1cc(-c2cnnc(-c3cc(NC(=O)CN4CCCC4)cnc3C)c2)ccn1 [Example 359]	
1000 to 10000	1000 to 10000	1000 to 10000	CC(=O)Nc1cc(-c2cc(-c3cc(NC(=O)c4ccnc(C(F)(F)F)c4)ccc3C)cn(C)c2=O)ccn1 [Example 21, N-(3-(2′-acetamido-1-methyl-2-oxo-1,2-dihydro-[3,4′-bipyridin]-5-yl)-4-methylphenyl)-2-(trifluoromethyl)isonicotinamide]	
1000 to 10000	1000 to 10000		CNC(=O)c1cc(-c2cnnc(-c3cc(NC(=O)CCC(C)(C)C#N)cnc3C)c2)ccn1 [Example 333]	
1000 to 10000	1000 to 10000		COC(=O)Nc1cc(-c2cnnc(-c3cc(NC(=O)COCC4CC4)ccc3C)c2)ccn1 [Example 360]	1000 to 10000
500 to 1000	≤ 100	1000 to 10000	CC(=O)Nc1cc(-c2cccc(-c3cc(NC(=O)c4ccnc(C(F)(F)F)c4)ccc3C)c2)ccn1 [Example 28]	
1000 to 10000	≤ 100		COC(=O)Nc1cc(-c2cnnc(-c3cc(NC(=O)c4cccc(C(C)(C)C#N)c4)ccc3C)c2)ccn1 [Example 311]	
1000 to 10000	1000 to 10000		CNC(=O)c1cc(-c2cnnc(-c3cc(NC(=O)c4ccc(Cl)c(OC)c4)cnc3C)c2)ccn1 [Example 322]	
1000 to 10000	1000 to 10000		Cc1ncc(NC(=O)c2cn(C(C)C)nn2)cc1-c1nccc(-c2ccnc(NC(=O)C3CC3)c2)n1 [Example 285]	1000 to 10000
1000 to 10000	1000 to 10000		CNC(=O)c1cc(-c2cc(-c3cc(NC(=O)COCC4CC4)ccc3C)ccn2)ccn1 [Example 358]	1000 to 10000
1000 to 10000	1000 to 10000		Cc1ccc(NC(=O)c2ccnc(S(C)(=O)=O)c2)cc1-c1cc(-c2ccnc(NC(=O)C3CC3)c2)cnn1 [Example 332]	1000 to 10000
1000 to 10000	500 to 1000		CNC(=O)c1cc(-c2cnnc(-c3cc(NC(=O)c4ccc(F)c(C(F)(F)F)c4)ccc3C)c2)ccn1 [Example 329]	1000 to 10000
500 to 1000	≤ 100		Cc1ccc(NC(=O)c2ccnc(C(C)(C)F)c2)cc1-c1cc(-c2ccnc(NC(=O)C3CC3)c2)cnn1 [Example 315]	≤ 100
1000 to 10000	1000 to 10000		Cc1ccc(NC(=O)c2cn(C(C)C)nn2)cc1-c1cc(-c2ccnc(NC(=O)C3CC3)c2)cnn1 [Example 320]	1000 to 10000
1000 to 10000	1000 to 10000		COC(=O)Nc1cc(-c2cnnc(-c3cc(NC(=O)CC4CCCC4)cnc3C)c2)ccn1 [Example 368]	
1000 to 10000	1000 to 10000		CNC(=O)c1cc(-c2cnnc(-c3cc(NC(=O)c4ccnc(C(F)F)c4)ccc3C)c2)ccn1 [Example 327]	1000 to 10000
1000 to 10000	1000 to 10000		CNC(=O)c1cc(-c2cnnc(-c3cc(NC(=O)c4ccnc(C(C)(C)C#N)c4)cnc3C)c2)ccn1 [Example 316]	

— patent publication US12319655B2, “RAF kinase inhibitors and methods of use thereof” (Deciphera Pharmaceuticals, LLC, priority 2021, dated 2025)
